Data as given in BindingDB's records for doi:10.1021/acschembio.5b00370 (University of Wisconsin-Madison, 2015).

Molecular target: Probable UDP-galactopyranose mutase (Klebsiella pneumoniae, UniProt Q48481)
Experiment: Fluorescence Polarization Assay
Method: Polarization for the fluorescein-UDP conjugated probe in the presence of inhibitors was measured on a Tecan M1000 microplate reader, exciting with 470 nm light and monitoring emission at 525 nm. Each condition was tested in triplicate in the presence of 220 nM K. pneumoniae UGM and 23.3 nM of the probe.

Chain of Probable UDP-galactopyranose mutase (Q48481 whole entry): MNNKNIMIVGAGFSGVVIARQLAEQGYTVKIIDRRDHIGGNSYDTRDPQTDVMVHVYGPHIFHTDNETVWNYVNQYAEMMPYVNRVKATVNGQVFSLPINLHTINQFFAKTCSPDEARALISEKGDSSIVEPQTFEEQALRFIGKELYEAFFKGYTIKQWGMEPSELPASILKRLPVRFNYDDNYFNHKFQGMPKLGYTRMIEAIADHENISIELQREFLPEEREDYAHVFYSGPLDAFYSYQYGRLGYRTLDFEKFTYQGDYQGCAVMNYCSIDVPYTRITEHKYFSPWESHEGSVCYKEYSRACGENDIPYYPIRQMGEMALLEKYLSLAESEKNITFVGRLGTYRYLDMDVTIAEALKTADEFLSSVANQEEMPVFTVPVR

Row | Kd [µM] | SMILES
1 | 6 | C=CCNc1nc(-c2cc(C)n(CCC(=O)O)c2C)cs1 [3‐{2,5‐Dimethyl‐3‐[2‐(prop‐2‐en‐1‐ylamino)‐1,3‐thiazol‐4‐yl]pyrrol‐1‐yl}propanoate (10)]
2 | 43 | O=C(O)CC1Sc2nnc(-c3ccco3)n2N=C1c1ccccc1 (configuration not stated) [2‐[3‐(Furan‐2‐yl)‐6‐phenyl‐7H‐[1,2,4]triazolo[3,4‐b][1,3,4]thiadiazin‐7‐yl]acetate (6)]
